This passage reports IC50 results from US20250340561A1, “QUINAZOLINE COMPOUND FOR INDUCING DEGRADATION OF G12D MUTANT KRAS PROTEIN” (Astellas Pharma Inc., priority 2021, published 2025).

Where two headings read alike, the source gives them in different places.

Assay [1] deals with phosphorylation of ERK (Thr202/Tyr204). In words: Test Example 2: ERK phosphorylation inhibition action in AsPC-1, Cell ELISA. The conditions noted are these: AsPC-1 cells, 0% = 1 μM trametinib. Format: cell-based, human. Here is the method:
Test Example 2: Evaluation of ERK Phosphorylation Inhibition Action on Human G12D Mutant KRAS-Positive Pancreatic Cancer Line AsPC-1
The ERK phosphorylation inhibition action of test compounds was evaluated by measuring phosphorylation of the 202th threonine (Thr202) and the 204th tyrosine (Tyr204) of ERK located downstream of the KRAS signal by Cell ELISA.
AsPC-1 cells were seeded on a 384-well plate (from Greiner bio-one) at 36 μL/well to give 2.0×10^4 cells per well. As for the cell culture conditions, a RPMI 1640 medium containing 10% fetal bovine serum was used in the presence of 5% CO2 at 37° C.
The next day, the test compounds (6 points having final concentrations in the range of 10 μM to 3.0 nM), trametinib (MEK inhibitor) of a final concentration of 1 μM as a positive control and DMSO, which was the solvent for the test compounds, as a negative control were diluted 100-fold with a fresh medium and were added at 4 μL per well. The cells were then cultured for 24 hours. After culturing, a 30% glyoxal solution (40% glyoxal [from Nacalai Tesque] was diluted with PBS) was quickly added at 30 μL per well, and the plate was allowed to stand for 90 minutes at room temperature to thus immobilize the cells. Then, the plate was centrifuged to remove the supernatant (using a centrifugal dehydrator machine, the supernatant was removed by the same method hereinafter), and 0.1% Triton X-100-containing PBS was added at 20 μL per well. After allowing to stand for 10 minutes at room temperature, the supernatant was removed by centrifugation, and the same operation was further repeated. Next, 0.5% SDS-containing PBS was added at 20 μL per well, and after allowing to stand at room temperature for 30 minutes, the supernatant was removed by centrifugation. Subsequently, a blocking solution (Intercept Blocking Buffer) was added at 20 μL per well, and the plate was allowed to stand for 1 hour at room temperature. The supernatant was removed by centrifugation, and an ERK (Thr202/Tyr204) phosphorylation antibody (Phospho-p44/42 MAPK (Erk 1/2) (Thr202/Tyr204) (D13.14.4E) XP Rabbit mAb; from Cell Signaling Technology) diluted 2,500-fold with a blocking solution was added at 10 or 15 μL per well as a primary antibody. The plate was allowed to stand at 4° C. overnight.
The next day, the plate was centrifuged to remove the supernatant. 0.05% Tween-20-containing PBS was added at 50 μL per well, and the supernatant was removed by centrifugation to thus wash each well. The washing was performed three times in total. After washing, Goat anti-Rabbit IgG H&L (IRDye 800CW) diluted 1,000-fold with a blocking solution was added at […] as a secondary antibody, and the plate was allowed to stand for 1 hour at room temperature. The plate was centrifuged to remove the supernatant, and each well was washed three times with 0.05% Tween-20-containing PBS in the same manner as after the primary antibody reaction. After removing the supernatant by centrifuging the plate, the plate was dried as it was with air at room temperature for 3 hours or more, and the 800-nm fluorescent signals were measured with Aerius.
With the signaling value at the time of addition of DMSO taken as 100% and with the signaling value at the time of addition of 1 μM trametinib taken as 0%, the 50% inhibition values (IC50) were calculated by Sigmoid-Emax model nonlinear regression analysis. The molecular weights of the test compounds were calculated as the molecular weights of the dihydrochloride for Example No. 22, the trihydrochlorides for Example Nos. 2-7, 9-12, 14-18 and 30, the tetrahydrochlorides for Example Nos. 19 and 46, the pentahydrochloride for Example No. 21 and the free forms forming no salt for the remaining Example Nos. The results for some test compounds of the formula (I) are shown in Table 3.
For orientation: An ELISA detects its analyte on a solid surface through an enzyme-linked reagent.

Assay [2] deals with human G12D mutant KRAS-positive pancreatic cancer line AsPC-1. In words: Test Example 3: non-anchorage-dependent cell growth inhibition, spheroid 3D cell culture. The conditions noted are these: AsPC-1 spheroid 3D culture, 6 days, CellTiter Glo 2.0. Format: cell-based. Here is the method: Test Example 3: Evaluation of Non-Anchorage-Dependent Cell Growth Inhibition Action on Human G12D Mutant KRAS-Positive Pancreatic Cancer Line AsPC-1
The non-anchorage-dependent cell growth inhibition action of test compounds was evaluated by spheroid 3D cell culture.
AsPC-1 cells were seeded on a low-cell-adhesive round bottom 384-well plate (PrimeSurface: from Sumitomo Bakelite) at 36 μL/well to give 5×10^2 cells per well. The cell culture was performed under the same conditions as in the Test Example 2.
The next day, the test compounds (6 points having final concentrations in the range of 10 μM to 3.0 nM) and DMSO, which was the solvent for the test compounds, as a negative control were diluted 100-fold with a fresh medium and were added at 4 μL per well. After culturing in the presence of […] at 37° C. for 6 days, CellTiter Glo 2.0 (from Promega) was added at 20 μL per well. After stirring with a plate mixer (from FINEPCR) at normal temperature for 1 hour, the luminescent signals were measured with ARVO X3 (from PerkinElmer).
With the signaling value in treatment with DMSO taken as […] and with the signaling value in the medium alone without cells taken as […], the […] inhibition values (IC50) were calculated by Sigmoid-Emax model nonlinear regression analysis. The molecular weights of the test compounds were calculated as the molecular weights of the dihydrochloride for Example No. 22, the trihydrochlorides for Example Nos. 2-7, 9-12, 14-18 and 30, the tetrahydrochlorides for Example Nos. 19 and 46, the pentahydrochloride for Example No. 21 and the free forms forming no salt for the remaining Example Nos. The results for some test compounds of the formula (I) are shown in Table 4.
On the technique in general: ATP-based viability assays read luminescence as a measure of living cells.

For the compound `Cc1c(F)cc2[nH]ncc2c1-c1c(C2CC2)cc2c(N3C[C@@H]4C[C@H]3CN4)nc(OC3CCOCC3)nc2c1OCc1ccc(-c2cn([C@H](C(=O)N3C[C@H](O)C[C@H]3C(=O)N[C@@H](CO)c3ccc(N4CCOC4=O)cc3)C(C)C)nn2)cc1` [Example 20, (4R)-1-[(2S)-2-(4-{4-[({6-cyclopropyl-4-[(1S,4S)-2,5-diazabicyclo[2.2.1]heptan-2-yl]-7-(6-fluoro-5-methyl-1H-indazol-4-yl)-2-[(oxan-4-yl)oxy]quinazolin-8-yl}oxy)methyl]phenyl}-1H-1,2,3-triazol-1-yl)-3-methylbutanoyl]-4-hydroxy-N-{(1R)-2-hydroxy-1-[4-(2-oxo-1,3-oxazolidin-3-yl)phenyl]ethyl}-L-prolinamide], the half-inhibitory concentration (IC50) came to 36 nM in assay [1] (Homo sapiens, ASPC1, 24 h, read-out: IC50) and 79 nM in assay [2] (Homo sapiens, ASPC1, 144 h, read-out: IC50).
As for `Cc1ncsc1-c1ccc(C2(NC(=O)[C@@H]3C[C@@H](O)CN3C(=O)[C@@H](NC(=O)c3ccc(COc4c(-c5c(C)c(F)cc6[nH]ncc56)c(C5CC5)cc5c(N6C[C@@H]7C[C@H]6CN7)nc(OC6CCOCC6)nc45)cc3)C(C)C)CC2)cc1` [Example 1], the IC50 in assay [1] (Homo sapiens, ASPC1, 24 h) came to 89 nM; in assay [2] (Homo sapiens, ASPC1, 144 h), 190 nM.
The matching figures for `Cc1ncsc1-c1ccc([C@H](CO)NC(=O)[C@@H]2C[C@@H](O)CN2C(=O)[C@H](C(C)C)n2cc(-c3ccc(COc4c(-c5c(C)c(F)cc6[nH]ncc56)c(C5CC5)cc5c(N6C[C@@H]7C[C@H]6CN7)nc(OC6CCN(C7COC7)CC6)nc45)cc3)nn2)cc1` [Example 24]: 25 nM and 55 nM.
As to `Cc1c(F)cc2[nH]ncc2c1-c1c(C2CC2)cc2c(N3C[C@@H]4C[C@H]3CN4)nc(OC3CCOCC3)nc2c1OCc1ccc(-c2cn([C@H](C(=O)N3C[C@H](O)C[C@H]3C(=O)N[C@@H](CO)c3ccccc3F)C(C)C)nn2)cc1` [Example 30], the IC50 is 185 nM in assay [1] (Homo sapiens, ASPC1, 24 h) and 323 nM in assay [2] (Homo sapiens, ASPC1, 144 h).
The matching figures for `Cc1ncsc1-c1ccc([C@H](CO)NC(=O)[C@@H]2C[C@@H](O)CN2C(=O)[C@H](C(C)C)n2cc(-c3ccc(COc4c(-c5c(C)c(F)cc6[nH]ncc56)c(C5CC5)cc5c(N6C[C@@H]7C[C@H]6CN7)nc(OC6CCOCC6)nc45)cc3)nn2)nc1` [Example 35]: 55 nM and 43 nM.
Regarding `Cc1ncsc1-c1ccc([C@H](CO)NC(=O)[C@@H]2C[C@@H](O)CN2C(=O)[C@H](C(C)C)n2cc(-c3ccc(COc4c(-c5c(C)c(F)cc6[nH]ncc56)c(C5CC5)cc5c(N6C[C@@H]7C[C@H]6CN7)nc(OC[C@@H]6CCOC6)nc45)cc3)nn2)cc1` [Example 53], the results for the half-inhibitory concentration (IC50) in assay [1] (24 hours) and in assay [2] were 10 nM and 23 nM, respectively.
In the case of `Cc1ncsc1-c1ccc([C@H](CO)NC(=O)[C@@H]2C[C@@H](O)CN2C(=O)[C@H](C(C)C)n2cc(-c3ccc(COc4c(-c5c(C)c(F)cc6[nH]ncc56)c(C5CC5)cc5c(N6C[C@@H]7C[C@H]6CN7)nc(OC6CCOCC6)nc45)cc3F)nn2)cc1` [Example 49, (4R)-1-[(2S)-2-(4-{4-[({6-cyclopropyl-4-[(1S,4S)-2,5-diazabicyclo[2.2.1]heptan-2-yl]-7-(6-fluoro-5-methyl-1H-indazol-4-yl)-2-[(oxan-4-yl)oxy]quinazolin-8-yl}oxy)methyl]-2-fluorophenyl}-1H-1,2,3-triazol-1-yl)-3-methylbutanoyl]-4-hydroxy-N-{(1R)-2-hydroxy-1-[4-(4-methyl-1,3-thiazol-5-yl)phenyl]ethyl}-L-prolinamide], the concentration for half-maximal inhibition (IC50) is 21 nM in assay [1] (Homo sapiens, ASPC1, 24 h) and 46 nM in assay [2] (Homo sapiens, ASPC1, 144 h).
The matching figures for `Cc1ncsc1-c1ccc([C@H](CO)NC(=O)[C@@H]2C[C@@H](O)CN2C(=O)[C@H](C(C)C)n2cc(-c3ccc(COc4c(-c5cc(O)cc(F)c5C)c(C5CC5)cc5c(N6C[C@@H]7C[C@H]6CN7)nc(OC6CCOCC6)nc45)cc3)nn2)cc1` [Example 15]: 22 nM and 64 nM.
The matching figures for `COC[C@H](C)Oc1nc(N2C[C@@H]3C[C@H]2CN3)c2cc(C3CC3)c(-c3c(C)c(F)cc4[nH]ncc34)c(OCc3ccc(-c4cn([C@H](C(=O)N5C[C@H](O)C[C@H]5C(=O)N[C@@H](CO)c5ccc(-c6scnc6C)cc5)C(C)C)nn4)cc3)c2n1` [Example 54]: 18 nM and 24 nM.
For `COC[C@@H](C)Oc1nc(N2C[C@@H]3C[C@H]2CN3)c2cc(C3CC3)c(-c3c(C)c(F)cc4[nH]ncc34)c(OCc3ccc(-c4cn([C@H](C(=O)N5C[C@H](O)C[C@H]5C(=O)N[C@@H](CO)c5ccc(-c6scnc6C)cc5)C(C)C)nn4)cc3)c2n1` [Example 40], in that order: 7 nM and 20 nM.
In the case of `Cc1ncsc1-c1ccc([C@H](CO)NC(=O)[C@@H]2C[C@@H](O)CN2C(=O)[C@H](C(C)C)n2cc(-c3ccc(COc4c(-c5c(C)c(F)cc6[nH]ncc56)c(C5CC5)cc5c(N6C[C@@H]7C[C@H]6CN7)nc(OC[C@H]6CCCN6C)nc45)cc3)nn2)cc1` [Example 60], the 50% inhibitory concentration (IC50) in assay [1] (Homo sapiens, ASPC1, 24 h) is 50 nM; in assay [2] (Homo sapiens, ASPC1, 144 h) it was 127 nM.
The matching figures for `Cc1ncoc1-c1ccc([C@H](CO)NC(=O)[C@@H]2C[C@@H](O)CN2C(=O)[C@H](C(C)C)n2cc(-c3ccc(COc4c(-c5c(C)c(F)cc6[nH]ncc56)c(C5CC5)cc5c(N6C[C@@H]7C[C@H]6CN7)nc(OC6CCOCC6)nc45)cc3)nn2)cc1` [Example 38]: 28 nM and 27 nM.
For the compound `Cc1ncsc1-c1ccc([C@H](C)NC(=O)[C@@H]2C[C@@H](O)CN2C(=O)[C@H](C(C)C)n2cc(-c3ccc(COc4c(-c5c(C)c(F)cc6[nH]ncc56)c(C5CC5)cc5c(N6C[C@@H]7C[C@H]6CN7)nc(OC6CCOCC6)nc45)cc3)nn2)cc1` [Example 9], the IC50 in assay [1] (Homo sapiens, ASPC1, 24 h) is 18 nM; in assay [2] (Homo sapiens, ASPC1, 144 h), 96 nM.
The matching figures for `Cc1ncsc1-c1ccc([C@H](CO)NC(=O)[C@@H]2C[C@@H](O)CN2C(=O)[C@H](C(C)C)n2cc(-c3ccc(COc4c(-c5c(C)c(F)cc6[nH]ncc56)c(C5CC5)cc5c(N6C[C@@H]7C[C@H]6CN7)nc(OCC6(CO)CC6)nc45)cc3)nn2)cc1` [Example 61]: 24 nM and 61 nM.
As for `Cc1c(F)cc2[nH]ncc2c1-c1c(C2CC2)cc2c(N3C[C@@H]4C[C@H]3CN4)nc(OC3CCOCC3)nc2c1OCc1ccc(-c2cn([C@H](C(=O)N3C[C@H](O)C[C@H]3C(=O)N[C@@H](CO)c3ccc(-c4ccnn4C)cc3)C(C)C)nn2)cc1` [Example 23], the IC50 in assay [1] (24 hours) worked out at 10 nM; in assay [2], 21 nM.

As a reminder, the IC50 is the midpoint of a concentration-inhibition curve.
